{"source": "patent US20250283035A1", "about": "“MORPHOGENIC COMPOUND-RELEASING MICROSPHERES AND USE IN BIOINK” (UVic Industry Partnerships Inc., priority 2018, published 2025)", "key": {"[1]": {"conditions": "drug in microspheres, literature values, cited from earlier work"}, "[2]": {"conditions": "cited from earlier work"}, "[3]": {"assay": "46-day purmorphamine release study from PCL microspheres in PBS", "assay_type": "physicochemical", "procedure": "A 46-day release study was performed to determine the release kinetics of purmorphamine. Each sample contained 10 mg of microspheres and 1 ml of PBS placed on 1.5 ml micro tubes (Axygen®). Samples for each day of collection (n=3) were placed on a VWR® mini shaker at 330 rpm at 37° C. and were collected every 4 days. After collection, samples were washed with de-ionized water and freeze-dried for further analysis. The drug was extracted from the microspheres and then quantified with high-performance liquid chromatography (HPLC) to estimate the puro concentration in the microspheres. Next, 10 mg of microspheres was placed in 1.5 ml microtubes in triplicate. […] The samples were then placed on the vortex mixer (Eppendorf® MixMate®) at 2500 rpm for 5 minutes. […] The samples were then placed at −80° C. for 5 minutes followed by centrifugation (Eppendorf 5424) at 1500 rpm for five minutes. The samples were filtered using 0.2 μm PTFE syringe filters before adding the supernatant to amber vials. HPLC was performed using an Agilent 1200 equipped with quaternary pump and diode-array detector (DAD) to quantify the amount of puro present in samples. A standard of puro with eleven dilutions of a stock solution diluted in ACN was used to determine the concentrations of the samples. The column used was an Eclipse Plus C18 (Agilent) with 5 μm particle size, 4.6 mm internal diameter (ID), and was 150-mm long with similar phase and ID guard column. Samples were analyzed at 300 nm after mass spectroscopy was used to generate a spectrum for puro. Mass spectroscopy information was acquired using an Ultimate 3000 HPLC system connected to an Orbitrap (Thermo Fisher Scientific). The system was used in direct infusion mode with no separation. Solvents used for this analysis were HPLC-grade ACN mixed with […] dispensed from a Milli-Q integral purification system (Millipore, ON, Canada). Both contained 0.1% V/V trifluoroacetic acid (TFA) (Fisher Scientific, Hampton, NH). […] ChemStation software was used for data analysis with auto-integration adjusted manually when needed."}, "[4]": {"conditions": "cited from earlier work", "remark": "listed apart in the source"}, "hiPS aggregates [5]": {"test_system": "hiPS aggregates", "assay": "Neurite morphology analysis of hiPS aggregates, IncuCyte (Example 2)", "assay_type": "cell-based, human", "conditions": "day 12", "procedure": "ReLeSR™ was used to select and remove undifferentiated hiPSs from the wells. Uniform hiPS aggregates were formed by adding a single cell suspension in STEMdiff™ Neural Induction Medium of 1×106 hiPSs to wells in AggreWell™ 800 plates and centrifuged for 5 min at 100×g to deposit the cells at the bottom of each microwell. Before incorporation with the cells, the microspheres were sterilized by low power air-plasma treatment (Harrick PDC-32G) for 30 seconds as described previously. […]\nImmunostained cell aggregates were imaged with an IncuCyte® ZOOM automatic live-cell imaging system (Essen BioScience, Ann Arbor, MI) at 10× magnification. Quantification of the morphological metrics of neurite length and branch points was performed using IncuCyte® ZOOM Software (2016A). Using the NeuroTrack™ software module, day 12 and day 20 green channel fluorescence (anti-beta-tubulin III positive) images were analyzed by masking the total neurite coverage and calculating the average length and branch points with the same processing definition. The cell aggregate area was analyzed for day 12 images using a NeuroTrack™ software processing definition, whereas a Basic Analyzer processing definition (used for confluence masking) was used to analyze the day 20 images. […]"}, "[6]": {"assay": "Degradation of fibrin scaffolds containing drug (Example 3)"}, "[7]": {"conditions": "ref [50]; cited from earlier work"}, "[8]": {"assay": "Guggulsterone encapsulation efficiency (extraction, HPLC-MS)", "assay_type": "physicochemical", "conditions": "PCL microspheres, 0.6 μg/mg GS/PCL; of total GS added", "procedure": "The amount of GS encapsulated per unit weight of microspheres was determined by extracting the drug from the fabricated microspheres. A measured amount of lyophilized microspheres was placed in a 1.5 mL propylene microtube, and 200 μL of ACN was added to each sample. The samples were vortexed at 3000 rpm for 30 seconds, vortexed for 5 minutes at 350 rpm (Eppendorf® MixMate®), and mixed with a micropipette for 10 seconds. These mixing steps were repeated twice to dissolve the PCL. Next, 1000 μL of additional ACN was added to the samples and mixed by micropipette for 10 seconds and then vortexed at 3000 rpm for 30 seconds. The solution was then centrifuged at 22° C. and 13000 rpm for 5 min using an Eppendorf 5424 Microcentrifuge. Thereafter, 1000 μL of the supernatant was transferred to a microtube and diluted as necessary for high performance liquid chromatography-mass spectrometry (HPLC-MS). The concentration of the drug in the sample was determined using HPLC-MS (Ultimate 3000 MSQ, Thermo Scientific with Chromeleon™ software) and run against a GS standard composed of five dilutions of a stock solution composed of GS dissolved in ACN. […]"}, "[9]": {"assay": "In vitro guggulsterone release study from PCL microspheres in PBS", "assay_type": "physicochemical", "procedure": "In vitro release studies were performed in triplicate. Ten milligrams of microspheres was suspended in 1 mL of PBS in a microtube. The tubes were then loaded onto a Sarstedt Sarmix mr-1 tube rotator and incubated at 37° C. The PBS supernatant for each tube was replaced every 2 days while tubes were removed and collected from the rotator at the following predetermined time points: day 2, 4, 8, 12, 16, 20, 24, 28, 36, and 44. For the collected tubes, the PBS supernatant was removed, and the microspheres were washed with deionized water, lyophilized, and weighed. The remaining GS concentration inside the microspheres was determined as previously described by dissolving microspheres with DCM, extracting the drug/precipitating PCL with 100% ethanol, and reading the absorbance at 255 nm using a Tecan Infinite® M200Pro plate reader (Gomez, et al., 2015). The amount of GS released was calculated by subtracting the GS remaining in the microspheres from the theoretical GS present in each amount of microspheres at day 0. Percentages of the drug that were assumed to be released for each sample day were calculated by comparing drug amounts leftover and initial amounts of the drug inside the microspheres to create a cumulative release graph."}, "[10]": {"conditions": "quoted in Example 1 from ref [42]; cited from earlier work"}, "hiPS aggregates [11]": {"test_system": "hiPS aggregates", "assay": "Flow cytometry of βIII-tubulin (TUJ1), Olig2, GFAP in hiPS aggregates (Example 2)", "assay_type": "cell-based, human", "parameters": "unit of the concentration uncertain", "procedure": "ReLeSR™ was used to select and remove undifferentiated hiPSs from the wells. Uniform hiPS aggregates were formed by adding a single cell suspension in STEMdiff™ Neural Induction Medium of 1×106 hiPSs to wells in AggreWell™ 800 plates and centrifuged for 5 min at 100×g to deposit the cells at the bottom of each microwell. Before incorporation with the cells, the microspheres were sterilized by low power air-plasma treatment (Harrick PDC-32G) for 30 seconds as described previously. When forming microsphere-incorporated hiPS aggregates, 0.5 mg of microspheres suspended in STEMdiff™ Neural Induction Medium was added to each AggreWell™ 800 well for a total of 2 mL of media in each well and centrifuged for 5 min at 100×g (FIGS. 11A-11B). The aggregates in the AggreWell™ 800 plates were maintained in 2 mL of STEMdiff™ Neural Induction Medium with daily media changes for 5 days. On day 5, the aggregates were harvested for immunocytochemistry or transferred to PLO/laminin-coated 24-well plates at a single aggregate per well for the remaining duration of the cell study (until day 12 or day 20). […] Negative control treatments contained aggregates without microspheres and media without soluble drug added. […]\nCell marker expression was quantified with flow cytometry on day 20 for β-tubulin III, Olig-2, and GFAP. […]"}, "[12]": {"conditions": "if release rate consistent beyond 44 days"}}, "note": "Where “and” joins values, the source holds several entries; their conditions need not be identical. Equal values may be shown once. Read-outs that look alike come from different tables or passages of the source.", "data": [{"compound": "O=C1CN=C(c2ccccc2Cl)c2cc([N+](=O)[O-])ccc2N1", "note": "[Clonazepam]", "values": [{"measurement": "encapsulation efficiency, previously reported", "setting": "[1]", "result": "72.6-95.1%"}]}, {"compound": "CC1=C(/C=C/C(C)=C/C=C/C(C)=C/C(=O)O)C(C)(C)CCC1", "note": "[RA, retinoic acid]", "values": [{"measurement": "cumulative RA release from PCL microspheres", "setting": "[2]; day 28, RA concentration 7.5 times greater", "result": "~53", "unit": "%"}, {"measurement": "cumulative RA release from PCL microspheres", "setting": "[2]; day 28, lower RA concentration", "result": 28, "unit": "%"}, {"measurement": "encapsulation efficiency, previously reported", "setting": "[1]", "result": 60.0, "unit": "%"}, {"measurement": "encapsulation efficiency, previously reported", "setting": "[1]; listed as retinoic acid", "result": "~60", "unit": "%"}]}, {"compound": "CC(=O)OCC(=O)[C@@]1(O)CC[C@H]2[C@@H]3CCC4=CC(=O)CC[C@]4(C)[C@H]3[C@@H](O)C[C@@]21C", "note": "[hydrocortisone 21-acetate]", "values": [{"measurement": "encapsulation efficiency, previously reported", "setting": "[1]", "result": "~55", "unit": "%"}]}, {"compound": "C[C@]12CCC(=O)C=C1CC[C@@H]1[C@@H]2[C@@H](O)C[C@@]2(C)[C@H]1CC[C@]2(O)C(=O)CO", "note": "[hydrocortisone]", "values": [{"measurement": "encapsulation efficiency, previously reported", "setting": "[1]", "result": "~9", "unit": "%"}]}, {"compound": "c1ccc2c(Oc3nc(Nc4ccc(N5CCOCC5)cc4)c4ncn(C5CCCCC5)c4n3)cccc2c1", "note": "[puro, purmorphamine]", "values": [{"measurement": "cumulative puro release", "setting": "[3]; day 28", "result": 68, "unit": "%"}, {"measurement": "cumulative puro release", "setting": "[3]; day 44", "result": "~87", "unit": "%"}, {"measurement": "cumulative puro release", "setting": "[3]; day 46, of theoretically encapsulated drug", "result": 91, "unit": "%"}, {"measurement": "puro released on average per day", "setting": "[3]; from 0.34 mg of puro-loaded microspheres added to cell aggregates", "result": "~0.0748", "unit": "µg"}, {"measurement": "puro released every day", "setting": "[3]; from 10 mg of microspheres", "result": 2.2, "unit": "µg"}]}, {"compound": "guggulsterone [GS]", "values": [{"measurement": "cumulative GS release, previously reported", "setting": "[4]; day 28, quoted in Example 1 from refs [40, 42]", "result": 45, "unit": "%"}, {"measurement": "cumulative GS release, previously reported", "setting": "[4]; day 44, quoted in Example 1 from refs [40, 42]", "result": 55, "unit": "%"}, {"measurement": "neurite length per cell cluster area", "setting": "hiPS aggregates [5]", "result": "greater neurite length compared to the negative control"}, {"measurement": "degradation of fibrin scaffolds containing the drug", "setting": "[6]", "result": "degraded much faster than samples containing RA"}, {"measurement": "susceptibility to degradation", "setting": "[7]", "result": "susceptible to degradation, including photodegradation"}, {"measurement": "GS encapsulation efficiency", "setting": "[8]", "result": "42.4±3.5% and ~42%"}, {"measurement": "concentration of GS released", "setting": "[9]; 0.5 mg of microspheres per aggregate-forming well", "result": "~0.93", "unit": "ng/mL"}, {"measurement": "cumulative GS release", "setting": "[9]; day 28", "result": "~45", "unit": "%"}, {"measurement": "cumulative GS release", "setting": "[9]; day 44 (final day), of drug theoretically encapsulated", "result": "~60% and ~62%"}, {"measurement": "average release of GS per day", "setting": "[9]; from 10 mg of microspheres, slope of graph", "result": 37, "unit": "ng"}, {"measurement": "additional duration of GS delivery beyond 44 days", "setting": "[9]; [12]", "result": 27, "unit": "days"}, {"measurement": "total duration of drug release", "setting": "[9]; [12]", "result": 71, "unit": "days"}, {"measurement": "total amount of guggulsterone encapsulated", "setting": "[9]; in 10 mg of microspheres", "result": "~2550", "unit": "ng"}, {"measurement": "theoretical total amount of drug initially in each sample", "setting": "[9]; in 10 mg of microspheres, day 0", "result": "~2.5", "unit": "µg"}, {"measurement": "GS encapsulation efficiency, previously reported", "setting": "[10]", "result": 42.4, "unit": "%"}, {"measurement": "TUJ1 expression (flow cytometry)", "setting": "hiPS aggregates [11]; day 20, soluble GS at 0.25 µM", "result": "~4", "unit": "%"}, {"measurement": "TUJ1 expression (flow cytometry)", "setting": "hiPS aggregates [11]; day 20, soluble GS at 2.5 µM", "result": "~7", "unit": "%"}]}]}
